According to ChEMBL document CHEMBL6109152, “Harnessing the SPOP E3 Ubiquitin Ligase via a Bridged Proteolysis Targeting Chimera (PROTAC) Strategy for Targeted Protein Degradation” (J Med Chem, 2025):
Activity calls are given as the source filed them. The calls are words filed in the database; no cut-off is given here.

Experiments:
[1] = target: T1, Speckle-type POZ protein-Bromodomain-containing protein 4 (Homo sapiens, UniProt O60885+O43791); test: PROTAC activity at SPOP/BRD4-S in human HT-29 cells assessed as induction of BRD4 short isoform degradation at 0.5 to 5 uM incubated for 24 hrs by Western blotting analysis; format: cell-based; details: dose 0.5-5 µM
T1 sequence (O43791 whole entry, looked up, other chains not shown, canonical isoform): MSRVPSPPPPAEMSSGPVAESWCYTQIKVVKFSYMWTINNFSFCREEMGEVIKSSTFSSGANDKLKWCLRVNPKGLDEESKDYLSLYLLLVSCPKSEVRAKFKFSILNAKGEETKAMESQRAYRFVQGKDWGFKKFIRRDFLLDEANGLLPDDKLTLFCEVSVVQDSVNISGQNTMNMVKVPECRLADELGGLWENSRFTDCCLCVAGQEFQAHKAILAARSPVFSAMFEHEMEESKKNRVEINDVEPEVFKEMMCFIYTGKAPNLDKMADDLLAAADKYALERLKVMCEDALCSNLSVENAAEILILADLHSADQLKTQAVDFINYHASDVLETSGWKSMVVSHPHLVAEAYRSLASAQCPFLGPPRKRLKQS

[2] = target: T1, Speckle-type POZ protein-Bromodomain-containing protein 4; test: PROTAC activity at SPOP/BRD4-L in human HT-29 cells assessed as induction of BRD4 long isoform degradation at 0.5 to 5 uM incubated for 24 hrs by Western blotting analysis; format: cell-based; details: dose 0.5-5 µM
[3] = target: T1, Speckle-type POZ protein-Bromodomain-containing protein 4; test: PROTAC activity at SPOP/BRD4-S in human HT-29 cells assessed as induction of BRD4 short isoform degradation at 5 uM incubated for 24 hrs by Western blotting analysis relative to control; format: cell-based
HT-29 [4] = test: Effect on BRD2 mRNA expression level in human HT-29 cells at 5 uM incubated for 24 hrs by RT-qPCR analysis; format: functional, cell-based
HT-29 [5] = test: Effect on c-MYC mRNA expression level in human HT-29 cells at 5 uM incubated for 24 hrs by RT-qPCR analysis; format: functional, cell-based
HT-29 [6] = test: Antiproliferative activity against human HT-29 cells assessed as reduction in cell growth up to 10 uM incubated for 3 days by WST-8 reagent based assay; format: functional; details: time 3.0 day
HT-29 [7] = test: Effect on BRD4 long isoform mRNA expression level in human HT-29 cells at 5 uM incubated for 24 hrs by RT-qPCR analysis; format: functional, cell-based
HT-29 [8] = test: Effect on BRD4 short isoform mRNA expression level in human HT-29 cells at 5 uM incubated for 24 hrs by RT-qPCR analysis; format: functional, cell-based
HT-29 [9] = test: Effect on BRD3 mRNA expression level in human HT-29 cells at 5 uM incubated for 24 hrs by RT-qPCR analysis; format: functional, cell-based
HT-29 [10] = test: Binding affinity to BRD4-S/GLP/SPOP in human HT-29 cells assessed as compound-BRD4-GLP-SPOP quaternary complex formation at 20 to 100 uM incubated for 1 hrs by pulldown based Western blot analysis; format: cell-based; details: dose 20-100 µM
HEK293T = test: Binding affinity to BRD4-S/GLP/SPOP in HEK293T cells assessed as compound-BRD4-GLP-SPOP quaternary complex formation at 20 to 100 uM incubated for 1 hrs by pulldown based Western blot analysis; format: cell-based; details: Homo sapiens, dose 20-100 µM

Row | SMILES | Activity [1] | Activity [2] | other results
1 | COc1cc2c(NC3CCN(CCCC(=O)NCCCCCNC(=O)C[C@@H]4N=C(c5ccc(Cl)cc5)c5c(sc(C)c5C)-n5c(C)nnc54)CC3)cc(N3CCOCC3)nc2cc1OCCCN1CCCC1 | inactive | inactive | 
2 | COc1cc2c(NC3CCN(CCCC(=O)NCCNC(=O)C[C@@H]4N=C(c5ccc(Cl)cc5)c5c(sc(C)c5C)-n5c(C)nnc54)CC3)cc(N3CCOCC3)nc2cc1OCCCN1CCCC1 | inactive | inactive | 
3 | COc1cc2c(N(C)C3CCN(CCCC(=O)NCCCCCCCCCCNC(=O)C[C@@H]4N=C(c5ccc(Cl)cc5)c5c(sc(C)c5C)-n5c(C)nnc54)CC3)cc(N3CCOCC3)nc2cc1OCCCN1CCCC1 |  |  | Activity [3]: inactive; Activity (HT-29 [4]): inactive; Activity (HT-29 [5]): inactive; Activity (HT-29 [6]): inactive; Activity (HT-29 [7]): inactive; Activity (HT-29 [8]): inactive; Activity (HT-29 [9]): inactive
4 | COc1cc2c(NC3CCN(CCCC(=O)NCCCCCCCCNC(=O)C[C@@H]4N=C(c5ccc(Cl)cc5)c5c(sc(C)c5C)-n5c(C)nnc54)CC3)cc(N3CCOCC3)nc2cc1OCCCN1CCCC1 | Active | inactive | 
5 | COc1cc2c(NC3CCN(CCCC(=O)NCCCCCCCNC(=O)C[C@@H]4N=C(c5ccc(Cl)cc5)c5c(sc(C)c5C)-n5c(C)nnc54)CC3)cc(N3CCOCC3)nc2cc1OCCCN1CCCC1 | inactive | inactive | 
6 | COc1cc2c(NC3CCN(CCCC(=O)NCCCCCCCCCCNC(=O)C[C@@H]4N=C(c5ccc(NC(=O)CCOCCOCCOCCOCCOCCOCCNC(=O)CCCC[C@@H]6SC[C@@H]7NC(=O)N[C@@H]76)cc5)c5c(sc(C)c5C)-n5c(C)nnc54)CC3)cc(N3CCOCC3)nc2cc1OCCCN1CCCC1 |  |  | Activity (HT-29 [10]): Active; Activity (HEK293T): Active
7 | COc1cc2c(NC3CCN(CCCC(=O)NCCCCCCCCCCNC(=O)C[C@H]4N=C(c5ccc(Cl)cc5)c5c(sc(C)c5C)-n5c(C)nnc54)CC3)cc(N3CCOCC3)nc2cc1OCCCN1CCCC1 |  |  | Activity [3]: inactive; Activity (HT-29 [4]): inactive; Activity (HT-29 [5]): inactive; Activity (HT-29 [6]): inactive; Activity (HT-29 [7]): inactive; Activity (HT-29 [8]): inactive; Activity (HT-29 [9]): inactive
8 | COc1cc2c(NC3CCN(CCCC(=O)NCCCCCCCCCNC(=O)C[C@@H]4N=C(c5ccc(Cl)cc5)c5c(sc(C)c5C)-n5c(C)nnc54)CC3)cc(N3CCOCC3)nc2cc1OCCCN1CCCC1 | Active | inactive | 

Now from value to compound, other results behind:

Row | Activity [1] | Activity [2] | SMILES | other results
9 | inactive | inactive | COc1cc2c(NC3CCN(CCCC(=O)NCCCCNC(=O)C[C@@H]4N=C(c5ccc(Cl)cc5)c5c(sc(C)c5C)-n5c(C)nnc54)CC3)cc(N3CCOCC3)nc2cc1OCCCN1CCCC1 | 
10 | inactive | inactive | COc1cc2c(NC3CCN(CCCC(=O)NCCCNC(=O)C[C@@H]4N=C(c5ccc(Cl)cc5)c5c(sc(C)c5C)-n5c(C)nnc54)CC3)cc(N3CCOCC3)nc2cc1OCCCN1CCCC1 | 
11 | inactive | inactive | COc1cc2c(NC3CCN(CCCC(=O)NCCCCCCNC(=O)C[C@@H]4N=C(c5ccc(Cl)cc5)c5c(sc(C)c5C)-n5c(C)nnc54)CC3)cc(N3CCOCC3)nc2cc1OCCCN1CCCC1 | 
